Where “and” joins values, the source holds several entries; their conditions need not be identical. Equal entries are not always repeated.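 Where inhibition never reached the appropriate level, the endpoint shown equals the highest concentration tested. Otherwise, values were interpolated linearly from a five-concentration, 48-hour dose response in 96-well plates. GI50: concentration for 50% inhibition of growth. The concentration for full growth arrest is given as TGI.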
Tests used:
Assay in all cases: NCI tumour cell line growth inhibition, 48 h
KM12 colon = tested on: KM12 colon
MOLT-4 leukemia = tested on: MOLT-4 leukemia
SF-268 CNS = tested on: SF-268 CNS
TK-10 renal = tested on: TK-10 renal
ACHN renal = tested on: ACHN renal
MDA-MB-435 = tested on: MDA-MB-435
HCT-15 colon = tested on: HCT-15 colon
A498 renal = tested on: A498 renal
U251 CNS = tested on: U251 CNS
HS 578T breast = tested on: HS 578T breast

CC(=O)N1CC(F)(F)c2c(Sc3ncc(N4CCC5(CC4)COC[C@H]5N)nc3N)cccc21
GI50 (KM12 colon): 22.1 µM | TGI (KM12 colon): > 100 µM | GI50 (MOLT-4 leukemia): 21.1 µM | TGI (MOLT-4 leukemia): 67.7 µM | GI50 (SF-268 CNS): 17.4 µM | TGI (SF-268 CNS): > 100 µM | GI50 (TK-10 renal): 0.991 µM | TGI (TK-10 renal): 35.8 µM | GI50 (ACHN renal): 9.03 µM | TGI (ACHN renal): 51.4 µM | GI50 (MDA-MB-435): 31000 nM | TGI (MDA-MB-435): > 100 µM | GI50 (HCT-15 colon): 24 µM | TGI (HCT-15 colon): 96.8 µM | GI50 (A498 renal): 0.402 µM | TGI (A498 renal): 4.18 µM | GI50 (U251 CNS): 11.1 µM | TGI (U251 CNS): 52.5 µM | GI50 (HS 578T breast): 14.6 µM | TGI (HS 578T breast): 59.1 µM

COc1cc(C2C(C#N)=C(N)OC3=C2C(=O)c2ccccc2C3=O)cc(OC)c1OC (centres undefined)
GI50 (KM12 colon): 0.728 µM | TGI (KM12 colon): > 100 µM | GI50 (MOLT-4 leukemia): 4.06 µM | TGI (MOLT-4 leukemia): 24.4 µM | GI50 (SF-268 CNS): 6.58 µM | TGI (SF-268 CNS): 60.7 µM | GI50 (TK-10 renal): 10 µM | TGI (TK-10 renal): > 100 µM | GI50 (ACHN renal): 0.571 µM | TGI (ACHN renal): 16.6 µM | GI50 (MDA-MB-435): 239 nM | TGI (MDA-MB-435): 0.523 µM | GI50 (HCT-15 colon): 1.45 µM | TGI (HCT-15 colon): 18.5 µM | GI50 (A498 renal): 0.327 µM | TGI (A498 renal): 11.8 µM | GI50 (U251 CNS): 3.38 µM | TGI (U251 CNS): 44 µM | GI50 (HS 578T breast): 0.382 µM | TGI (HS 578T breast): 49.3 µM

COc1ccc(/C=C\c2cc(OC)c(OC)c(OC)c2)c(NS(=O)(=O)c2ccc(C)cc2)c1O
GI50 (KM12 colon): 0.0383 µM | GI50 (MOLT-4 leukemia): 0.0421 µM | TGI (MOLT-4 leukemia): > 62.9 µM | GI50 (SF-268 CNS): 0.226 µM | TGI (SF-268 CNS): > 91.5 µM | GI50 (TK-10 renal): 3.8 µM | TGI (TK-10 renal): > 100 µM | GI50 (ACHN renal): 0.0874 µM | TGI (ACHN renal): > 59.9 µM | GI50 (MDA-MB-435): 20.8 nM | TGI (MDA-MB-435): 0.0621 µM | GI50 (HCT-15 colon): 0.0395 µM | TGI (HCT-15 colon): > 81.6 µM | GI50 (A498 renal): 0.022 µM | TGI (A498 renal): 0.0805 µM | GI50 (U251 CNS): 0.0418 µM | TGI (U251 CNS): > 100 µM | GI50 (HS 578T breast): 0.0483 µM | TGI (HS 578T breast): > 100 µM

COC(=O)CCC1=C(C)c2cc3[n-]c(cc4nc(cc5[n-]c(cc1n2)c(CCC(=O)OC)c5C)C=C4C)cc3C.[Cd+2]
GI50 (KM12 colon): 3.46 µM | TGI (KM12 colon): 13.6 µM | GI50 (MOLT-4 leukemia): 5.08 µM | TGI (MOLT-4 leukemia): > 63.6 µM | GI50 (SF-268 CNS): 3.14 µM | TGI (SF-268 CNS): 14.9 µM | GI50 (TK-10 renal): 5.25 µM | TGI (TK-10 renal): 13.6 µM | GI50 (ACHN renal): 16.2 µM | TGI (ACHN renal): 38.8 µM | GI50 (MDA-MB-435): 2990 nM | TGI (MDA-MB-435): 19.6 µM | GI50 (HCT-15 colon): 11.8 µM | TGI (HCT-15 colon): > 55 µM | GI50 (A498 renal): 9.01 µM | TGI (A498 renal): 26.3 µM | GI50 (U251 CNS): 2.82 µM | TGI (U251 CNS): 9.98 µM | GI50 (HS 578T breast): 5.73 µM | TGI (HS 578T breast): > 100 µM

C=C(C)[C@H]1CC/C(C)=C/CCC(C)C(=O)CC/C(CO)=C\[C@@H]1O (some centres undefined)
GI50 (KM12 colon): > 100 µM | TGI (KM12 colon): > 100 µM | GI50 (MOLT-4 leukemia): 56.6 µM | TGI (MOLT-4 leukemia): > 100 µM | GI50 (SF-268 CNS): 88.9 µM | TGI (SF-268 CNS): > 100 µM | GI50 (TK-10 renal): 70.8 µM | TGI (TK-10 renal): > 100 µM | GI50 (ACHN renal): > 100 µM | TGI (ACHN renal): > 100 µM | GI50 (MDA-MB-435): 49200 nM | TGI (MDA-MB-435): > 100 µM | GI50 (HCT-15 colon): 5.47 µM | TGI (HCT-15 colon): > 100 µM | GI50 (A498 renal): 68.7 µM | TGI (A498 renal): > 100 µM | GI50 (U251 CNS): 90.3 µM | TGI (U251 CNS): > 100 µM | GI50 (HS 578T breast): 41.9 µM | TGI (HS 578T breast): > 100 µM

O=Cc1coc2ccccc2c1=O
TGI (KM12 colon): 69.9 µM | TGI (MOLT-4 leukemia): 96.1 µM | TGI (SF-268 CNS): 56.7 µM | TGI (TK-10 renal): 60.5 µM | TGI (ACHN renal): 45.2 µM | TGI (MDA-MB-435): 47.9 µM | TGI (HCT-15 colon): 37.4 µM | TGI (A498 renal): > 100 µM | TGI (U251 CNS): 65.2 µM | TGI (HS 578T breast): 53.4 µM

CC[C@H](C)[C@H](NC(=O)C12C3C4C1C1C2C3C41NC(C)=O)C(=O)N(C)[C@H](C[C@@H](OC(C)=O)c1nc(C(=O)N[C@@H](Cc2ccccc2)C[C@H](C)C(=O)OC)cs1)C(C)C (some centres undefined)
GI50 (KM12 colon): 0.471 µM | TGI (KM12 colon): > 14.3 µM | GI50 (MOLT-4 leukemia): 0.588 µM | TGI (MOLT-4 leukemia): > 14.3 µM | GI50 (SF-268 CNS): 0.677 µM | TGI (SF-268 CNS): > 14.3 µM | GI50 (TK-10 renal): 1.11 µM | TGI (TK-10 renal): > 14.3 µM | GI50 (ACHN renal): 2.53 µM | TGI (ACHN renal): > 14.3 µM | GI50 (MDA-MB-435): 42.7 nM | TGI (MDA-MB-435): 0.625 µM | GI50 (HCT-15 colon): 2.41 µM | TGI (HCT-15 colon): > 14.3 µM | GI50 (A498 renal): 0.503 µM | TGI (A498 renal): 10.2 µM | GI50 (U251 CNS): 0.434 µM | TGI (U251 CNS): > 14.3 µM | GI50 (HS 578T breast): 0.468 µM | TGI (HS 578T breast): > 14.3 µM

CC(=O)Oc1cccc2c1C(=O)c1c(OC(C)=O)cc(C)cc1C2=O
TGI (KM12 colon): > 100 µM | TGI (MOLT-4 leukemia): > 100 µM | TGI (SF-268 CNS): > 100 µM | TGI (TK-10 renal): > 100 µM | TGI (ACHN renal): > 100 µM | TGI (MDA-MB-435): > 100 µM | TGI (HCT-15 colon): > 100 µM | TGI (A498 renal): > 100 µM | TGI (U251 CNS): > 100 µM | TGI (HS 578T breast): > 100 µM

COc1ccc([C@H]2O[C@@H](CO)C[C@]2(O)c2ccc(OC)cc2)cc1
GI50 (KM12 colon): > 100 µM | TGI (KM12 colon): > 100 µM | GI50 (MOLT-4 leukemia): > 100 µM | TGI (MOLT-4 leukemia): > 100 µM | GI50 (SF-268 CNS): > 100 µM | TGI (SF-268 CNS): > 100 µM | GI50 (TK-10 renal): > 100 µM | TGI (TK-10 renal): > 100 µM | GI50 (ACHN renal): > 100 µM | TGI (ACHN renal): > 100 µM | GI50 (MDA-MB-435): > 100000 nM | TGI (MDA-MB-435): > 100 µM | GI50 (HCT-15 colon): > 100 µM | TGI (HCT-15 colon): > 100 µM | GI50 (A498 renal): > 100 µM | TGI (A498 renal): > 100 µM | GI50 (U251 CNS): > 100 µM | TGI (U251 CNS): > 100 µM | GI50 (HS 578T breast): 39.5 µM | TGI (HS 578T breast): > 100 µM

O=C1c2cc(CCl)sc2C(=O)c2ccsc21
TGI (KM12 colon): 3.03 µM | TGI (MOLT-4 leukemia): 0.47 µM | TGI (SF-268 CNS): 0.676 µM | TGI (TK-10 renal): 3.41 µM | TGI (ACHN renal): 1.25 µM | TGI (MDA-MB-435): 0.0339 µM | TGI (HCT-15 colon): 1.48 µM | TGI (A498 renal): 3.01 µM | TGI (U251 CNS): 1.14 µM | TGI (HS 578T breast): 0.498 µM

O=C1/C(=C/c2cccs2)CCC/C1=C\c1cccs1
GI50 (KM12 colon): > 100 µM | TGI (KM12 colon): > 100 µM | GI50 (MOLT-4 leukemia): > 100 µM | TGI (MOLT-4 leukemia): > 100 µM | GI50 (SF-268 CNS): 33.5 µM | TGI (SF-268 CNS): > 100 µM | GI50 (TK-10 renal): 25.9 µM | TGI (TK-10 renal): > 71.8 µM | GI50 (ACHN renal): 57 µM | TGI (ACHN renal): > 100 µM | GI50 (MDA-MB-435): > 100000 nM | TGI (MDA-MB-435): > 100 µM | GI50 (HCT-15 colon): > 100 µM | TGI (HCT-15 colon): > 100 µM | GI50 (A498 renal): 31.4 µM | TGI (A498 renal): > 100 µM | GI50 (U251 CNS): 30.6 µM | TGI (U251 CNS): > 100 µM | GI50 (HS 578T breast): 29.2 µM | TGI (HS 578T breast): > 100 µM

CN(C)c1ccc(/C=C/c2ccnc3ccccc23)cc1
GI50 (KM12 colon): 3.11 µM | TGI (KM12 colon): > 100 µM and 33.7 µM | GI50 (MOLT-4 leukemia): 3.59 µM | TGI (MOLT-4 leukemia): 43.6 µM | GI50 (SF-268 CNS): 5.58 µM | TGI (SF-268 CNS): > 100 µM | GI50 (TK-10 renal): 9.49 µM | TGI (TK-10 renal): > 100 µM and 58.4 µM | GI50 (ACHN renal): 5.58 µM | TGI (ACHN renal): > 100 µM | GI50 (MDA-MB-435): 1360 nM | TGI (MDA-MB-435): 72.6 µM and 20.7 µM | GI50 (HCT-15 colon): 3.76 µM | TGI (HCT-15 colon): > 100 µM | GI50 (A498 renal): 4.03 µM | TGI (A498 renal): > 100 µM and 24.8 µM | GI50 (U251 CNS): 4.04 µM | TGI (U251 CNS): > 100 µM and 63.4 µM | GI50 (HS 578T breast): 3.67 µM | TGI (HS 578T breast): 57 µM and > 30.1 µM

Source: PubChem BioAssay (NCI)
